Assay results reported in PubChem BioAssay (NCI).
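Cells were grown in 96-well plates and exposed to each compound for 48 hours at five concentrations; endpoints were interpolated linearly between bracketing concentrations, or set to the highest concentration if not reached. TGI: concentration producing complete growth inhibition.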

Assays:
Assay in all cases: growth of human tumour cells (NCI), 48 h
NCI-H522 lung = test system: NCI-H522 lung
OVCAR-3 ovarian = test system: OVCAR-3 ovarian
MCF7 breast = test system: MCF7 breast
U251 CNS = test system: U251 CNS
KM12 colon = test system: KM12 colon
HCC-2998 colon = test system: HCC-2998 colon
BT-549 breast = test system: BT-549 breast
MDA-N = test system: MDA-N
RPMI-8226 leukemia = test system: RPMI-8226 leukemia
HS 578T breast = test system: HS 578T breast

Compound	TGI (NCI-H522 lung)	TGI (OVCAR-3 ovarian)	TGI (MCF7 breast)	TGI (U251 CNS)	TGI (KM12 colon)	TGI (HCC-2998 colon)	TGI (BT-549 breast)	TGI (MDA-N)	TGI (RPMI-8226 leukemia)	TGI (HS 578T breast)
CC1CC(=O)Nc2ccccc2N1C(=O)C1CC1 (stereo not given)	> 100 µM	> 100 µM	> 100 µM	> 100 µM	> 100 µM	> 100 µM	> 100 µM	> 100 µM	> 100 µM	> 100 µM
Nc1ccc(C2SCC(=O)N2NS(=O)(=O)c2cccc(C(=O)O)c2)cc1 (stereo not given)	> 100 µM	> 100 µM	> 100 µM	> 100 µM	> 100 µM	> 100 µM	> 100 µM	> 100 µM	> 100 µM	> 100 µM
CN1CCN(c2n[nH]c(=O)c3c2nnn3C2CCCCC2)CC1	> 100 µM	> 100 µM	> 100 µM	> 100 µM	> 100 µM	> 100 µM	> 100 µM	> 100 µM	> 100 µM	> 100 µM
CCOC(=O)CC1Nc2ccccc2C12CCc1c([nH]c3ccccc13)C2C(=O)OCC (stereo not given)	> 100 µM	> 100 µM	> 100 µM	> 100 µM	> 100 µM	> 100 µM	> 100 µM	> 100 µM	11.1 µM	> 100 µM
C[C@@H]1CC[C@@]2(C)[C@H](C)/C(=C\COC(=O)/C=C/c3ccc(O)c(O)c3)CC[C@@]12C	3.12 µM	21.6 µM	15.2 µM	17.8 µM	15.9 µM	20 µM	29 µM	14.3 µM	10.2 µM	32.8 µM
CCN(CC)CCSc1c(C(C)=O)c(=O)n(-c2ccccc2)c(=S)n1-c1ccccc1	5.54 µM	8.79 µM	8.45 µM	33.1 µM	35 µM	24.5 µM	30.8 µM	20.9 µM	8.52 µM	> 93.4 µM
OC(Cc1cc(CC(O)(C(F)(F)F)C(F)(F)F)nc(CC(O)(C(F)(F)F)C(F)(F)F)c1)(C(F)(F)F)C(F)(F)F	8.98 µM	1.96 µM	9.06 µM	5.32 µM	2.42 µM	> 10 µM	6.1 µM	4.09 µM	> 10 µM	4.63 µM
c1cc(CSc2ncnc3nc[nH]c23)ccn1	> 100 µM	> 100 µM	> 100 µM	> 100 µM	> 100 µM	> 100 µM	> 100 µM	> 100 µM	> 100 µM	> 100 µM
COc1cc(C(c2ccc3c(c2)OCO3)C2SCCCS2)cc(OC)c1OC (stereo not given)	5.87 µM	27.4 µM	10.1 µM	21.5 µM	26 µM	8.8 µM	> 100 µM	1.77 µM	7.77 µM	7.97 µM
CCCCCCc1cc2cc(C(=O)Nc3cccc(F)c3)c(=N)oc2cc1O	5.33 µM	23.7 µM	11.7 µM	6.58 µM	8.3 µM	11.6 µM	6.19 µM	11.8 µM	9.4 µM	6.81 µM
O=C(Nc1ccc(Cl)cc1)c1cc(S(=O)(=O)N2CCNNC2=O)c(S)cc1Cl	> 100 µM	> 100 µM	> 100 µM	> 100 µM	> 100 µM	> 100 µM	> 100 µM	> 100 µM	> 100 µM	> 100 µM
CON[N+]([O-])=NC(C)C	> 100 µM	> 100 µM	> 100 µM	> 100 µM	> 100 µM	> 100 µM	> 100 µM	> 100 µM	> 100 µM	> 100 µM
CC1(C)[C@H]2Cc3cc4nc5ccccn5c4cc3[C@@H]1C2	21.9 µM	35.6 µM	17.8 µM	34.2 µM	36.7 µM	37 µM	41.5 µM	33.4 µM	69.3 µM	37.7 µM
Cn1c(=O)c2c(=O)cc(N)[nH]c2n(C)c1=O	> 100 µM	> 100 µM	> 100 µM	> 100 µM	> 100 µM	> 100 µM	> 100 µM	> 100 µM	> 100 µM	> 100 µM
CC1(C)N([O-])[N+](=O)C1(C)O (stereo not given)	> 100 µM	> 100 µM	> 100 µM	> 100 µM	> 100 µM	> 100 µM	> 100 µM	> 100 µM	> 100 µM	> 100 µM
COC(=O)[C@H](Cc1ccccc1)NC(=O)N(CCNC(=O)OC(C)(C)C)c1ccccc1	> 100 µM	> 100 µM	> 100 µM	> 100 µM	> 100 µM	> 100 µM	> 100 µM	> 100 µM	> 100 µM	> 100 µM
CC/C=C\C=C/C(=O)N/C=C/CCC	36 µM	> 100 µM	> 100 µM	> 100 µM	> 100 µM	> 100 µM	> 100 µM	> 100 µM	> 100 µM	> 100 µM
O=C1CN(c2ccccc2)C(=O)CN1NCNN1CC(=O)N(c2ccccc2)CC1=O	> 100 µM	> 100 µM	> 100 µM	> 100 µM	> 100 µM	> 100 µM	> 100 µM	> 100 µM	> 100 µM	> 100 µM
S=C(S)NCCN1CCNCC1	32.7 µM	63.8 µM	> 100 µM	> 100 µM	> 100 µM	68.7 µM	> 100 µM	> 100 µM	47.5 µM	> 100 µM
CCCCCCCCCCCCCCCC(=O)OC1C(O)C(O)C(O)C(O)C12CO2 (stereo not given)	> 100 µM	73 µM	> 100 µM	39.2 µM	> 100 µM	> 100 µM	> 100 µM	> 100 µM	> 100 µM	> 100 µM
C=C(C)COc1cc(NC(=S)OC(C)C)ccc1Cl	29.1 µM	29.6 µM	29.3 µM	30.8 µM	65.7 µM	29.5 µM	24.3 µM	31.5 µM	54.1 µM	49.9 µM
C/C(=N\O)c1cccc(Nc2c3ccccc3nc3occc23)c1	4.83 µM	80.1 µM	34 µM	> 100 µM	> 100 µM	52.4 µM	24.1 µM	> 100 µM	> 100 µM	55.3 µM
O=C(/C=C/c1cccc(Br)c1)N1CCN(CCOC(c2ccccc2)c2ccccc2)CC1	> 100 µM	> 100 µM	> 100 µM	> 100 µM	> 100 µM	> 100 µM	84.2 µM	> 100 µM	36.2 µM	> 100 µM
CCOC(=O)c1cc([N+](=O)[O-])c(Sc2ncnc3nc[nH]c23)c([N+](=O)[O-])c1	2.34 µM	7.52 µM	3.41 µM	22.8 µM	24.5 µM	36.7 µM	20.1 µM	15.1 µM	6.08 µM	49.1 µM
COc1ccc2nc3cc(Cl)ccc3c(NCCCCCC(=O)NC(COc3ccc4ccc5cccnc5c4n3)COc3ccc4ccc5cccnc5c4n3)c2c1	81.1 µM	> 100 µM	15.1 µM	26.7 µM	85.5 µM	28.1 µM	3.55 µM	45.7 µM	17.3 µM	73.9 µM
Cc1cccc(N=N/C(=N\NC(=O)c2cc(Cl)ccc2O)c2ccc(N(CCC#N)CCC#N)cc2C)c1	72.6 µM	49.6 µM	> 100 µM	> 100 µM	87.7 µM	58.7 µM	> 100 µM	> 100 µM	44.9 µM	> 100 µM
CC(=O)Oc1cc(-c2oc3cc(OC(C)=O)c(C4OC(CO)C(O)C(O)C4O)c(OC(C)=O)c3c(=O)c2O)c(OC(C)=O)cc1O (stereo not given)	> 100 µM	> 100 µM	> 100 µM	> 100 µM	> 100 µM	> 100 µM	> 100 µM	> 100 µM	> 100 µM	> 100 µM
CCCCCCCCCCCCc1ccsc1-c1ccc(-c2ccc(-c3sccc3CCCCCCCCCCCC)s2)s1	> 100 µM	> 100 µM	> 100 µM	> 100 µM	> 100 µM	> 100 µM	> 100 µM	> 100 µM	> 100 µM	> 100 µM
